From ChEMBL document CHEMBL4765275, “Discovery of novel tertiary amide derivatives as NEDDylation pathway activators to inhibit the tumor progression in vitro and in vivo” (Eur J Med Chem, 2020)
Calls of active or inactive are those of the source. No cut-off for these calls is given here.

Experiments:
MGC-803 [1] = assay: Induction of apoptosis in human MGC-803 cells assessed as late apoptotic cells at 100 nmol/L measured after 48 hrs by Annexin V-FITC/propidium iodide staining based flow cytometry (reference value: 5.6%); type: functional
MGC-803 [2] = assay: Induction of apoptosis in human MGC-803 cells assessed as late apoptotic cells at 75 nmol/L measured after 48 hrs by Annexin V-FITC/propidium iodide staining based flow cytometry (reference value: 5.6%); type: functional
PC-3 = assay: Antiproliferative activity against human PC-3 cells measured after 48 hrs by MTT assay; type: functional, cell-based; conditions: PC-3, 48 h
MGC-803 [3] = assay: Induction of apoptosis in human MGC-803 cells assessed as upregulation of Bad expression at 50 to 150 nmol/L measured after 48 hrs by Western blot analysis; type: functional, cell-based; conditions: dose 50-150 nmol/L
MGC-803 [4] = assay: Induction of apoptosis in human MGC-803 cells assessed as down regulation of c-IAP1 expression at 150 nmol/L measured after 24 hrs in presence of NEDDylation inhibitor MLN4924 by Western blot analysis; type: functional, cell-based
MGC-803 [5] = assay: Induction of apoptosis in human MGC-803 cells assessed as late apoptotic cells at 150 nmol/L measured after 48 hrs by Annexin V-FITC/propidium iodide staining based flow cytometry (reference value: 5.6%); type: functional
MGC-803 [6] = assay: Cell cycle arrest in human MGC-803 cells assessed as accumulation at G2 phase at 50 nmol/L measured after 48 hrs by propidium iodide staining based flow cytometry (reference value: 24.91%); type: functional
MGC-803 [7] = assay: Cell cycle arrest in human MGC-803 cells assessed as accumulation at G1 phase at 100 nmol/L measured after 48 hrs by propidium iodide staining based flow cytometry (reference value: 40.61%); type: functional
MGC-803 [8] = assay: Induction of apoptosis in human MGC-803 cells assessed as down regulation of c-IAP1 expression at 150 nmol/L measured after 24 hrs in presence of proteasome inhibitor […] by Western blot analysis; type: functional, cell-based
MGC-803 [9] = assay: Toxicity in human MGC-803 cells xenografted mouse assessed as change in body weight at 50 to 150 mg/kg, sc measured after 28 days; type: organism-based; conditions: in vivo, 672 h, dose 50-150 mg/kg, time 28 day
MCF7 = assay: Antiproliferative activity against human MCF7 cells measured after 48 hrs by MTT assay; type: functional, cell-based; conditions: MCF7, 48 h
MGC-803 [10] = assay: Cell cycle arrest in human MGC-803 cells assessed as accumulation at G2 phase at 150 nmol/L measured after 48 hrs by propidium iodide staining based flow cytometry (reference value: 24.91%); type: functional
MGC-803 [11] = assay: Induction of apoptosis in human MGC-803 cells assessed as down regulation of Bcl-xL expression at 50 to 150 nmol/L measured after 48 hrs by Western blot analysis; type: functional, cell-based; conditions: dose 50-150 nmol/L
MGC-803 [12] = assay: Induction of apoptosis in human MGC-803 cells assessed as down regulation of XIAP expression at 50 to 150 nmol/L measured after 48 hrs by Western blot analysis; type: functional, cell-based; conditions: dose 50-150 nmol/L
MGC-803 [13] = assay: Induction of apoptosis in human MGC-803 cells assessed as down regulation of Bcl-2 expression at 50 to 150 nmol/L measured after 48 hrs by Western blot analysis; type: functional, cell-based; conditions: dose 50-150 nmol/L
MGC-803 [14] = assay: Induction of apoptosis in human MGC-803 cells assessed as increase in activated caspase-9 expression at 50 to 150 nmol/L measured after 48 hrs by Western blot analysis; type: functional, cell-based; conditions: dose 50-150 nmol/L
MGC-803 [15] = assay: Induction of apoptosis in human MGC-803 cells assessed as early apoptotic cells at 100 nmol/L measured after 48 hrs by Annexin V-FITC/propidium iodide staining based flow cytometry (reference value: 2.2%); type: functional
MGC-803 [16] = assay: Antitumor activity against human MGC-803 cells xenografted in mouse assessed as reduction in tumor weight at 50 mg/kg, sc measured after 28 days relative to control; type: functional; set-up: scale not given: the % may be the effect or the level left; conditions: time 28 day
MGC-803 [17] = assay: Antiproliferative activity against human MGC-803 cells assessed as cell viability measured after 48 hrs in presence of NEDDylation inhibitor MLN4924 by MTT assay relative to control; type: functional
MGC-803 [18] = assay: Induction of apoptosis in human MGC-803 cells assessed as necrotic cells at 75 nmol/L measured after 48 hrs by Annexin V-FITC/propidium iodide staining based flow cytometry (reference value: 0.5%); type: functional
MGC-803 [19] = assay: Induction of apoptosis in human MGC-803 cells assessed as necrotic cells at 150 nmol/L measured after 48 hrs by Annexin V-FITC/propidium iodide staining based flow cytometry (reference value: 0.5%); type: functional
MGC-803 [20] = assay: Induction of apoptosis in human MGC-803 cells assessed as upregulation of Fasl expression at 50 to 150 nmol/L measured after 48 hrs by Western blot analysis; type: functional, cell-based; conditions: dose 50-150 nmol/L
MGC-803 [21] = assay: Induction of apoptosis in human MGC-803 cells assessed as early apoptotic cells at 50 nmol/L measured after 48 hrs by Annexin V-FITC/propidium iodide staining based flow cytometry (reference value: 2.2%); type: functional
MGC-803 [22] = assay: Induction of morphological changes in human MGC-803 cells assessed as cell rounding at 50 to 150 nmol/L measured after 48 hrs by bright field microscopic analysis; type: functional, cell-based; conditions: dose 50-150 nmol/L
MGC-803 [23] = assay: Induction of morphological changes in human MGC-803 cells assessed as nuclear fragmentation at 50 to 150 nmol/L measured after 48 hrs by DAPI staining based assay; type: functional, cell-based; conditions: dose 50-150 nmol/L
MGC-803 [24] = assay: Induction of apoptosis in human MGC-803 cells assessed as necrotic cells at 100 nmol/L measured after 48 hrs by Annexin V-FITC/propidium iodide staining based flow cytometry (reference value: 0.5%); type: functional
MGC-803 [25] = assay: Induction of apoptosis in human MGC-803 cells assessed as increase in activated caspase-8 expression at 50 to 150 nmol/L measured after 48 hrs by Western blot analysis; type: functional, cell-based; conditions: dose 50-150 nmol/L
MGC-803 [26] = assay: Induction of apoptosis in human MGC-803 cells assessed as early apoptotic cells at 150 nmol/L measured after 48 hrs by Annexin V-FITC/propidium iodide staining based flow cytometry (reference value: 2.2%); type: functional
[27] = biological target: T1, NEDD8-activating enzyme E1 regulatory subunit (Homo sapiens) (UniProt Q13564); assay: Stabilization of NAE1 (unknown origin) at 150 nmol/L by CETSA; conditions: filed as activator
T1 sequence (whole entry): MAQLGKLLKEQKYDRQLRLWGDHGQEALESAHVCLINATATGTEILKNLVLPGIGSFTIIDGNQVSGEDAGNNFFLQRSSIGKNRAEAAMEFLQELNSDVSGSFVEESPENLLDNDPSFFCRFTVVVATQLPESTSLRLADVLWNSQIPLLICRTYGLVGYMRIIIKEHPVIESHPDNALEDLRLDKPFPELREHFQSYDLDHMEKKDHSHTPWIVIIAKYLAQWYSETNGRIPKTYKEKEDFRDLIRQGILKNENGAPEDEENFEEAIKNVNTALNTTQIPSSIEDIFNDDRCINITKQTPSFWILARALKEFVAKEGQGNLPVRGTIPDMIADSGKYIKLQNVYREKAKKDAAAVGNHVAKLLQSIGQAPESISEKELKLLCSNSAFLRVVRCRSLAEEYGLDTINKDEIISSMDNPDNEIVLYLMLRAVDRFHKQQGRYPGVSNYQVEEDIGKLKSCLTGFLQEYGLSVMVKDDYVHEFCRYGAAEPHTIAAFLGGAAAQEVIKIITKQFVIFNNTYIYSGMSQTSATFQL

IC50 (PC-3): 1150 nM | IC50 (MCF7): 100 nM | Activity [27]: Active
SMILES: COc1ccc(CN(C(=O)Cc2cccs2)c2cc(OC)c(OC)c(OC)c2)cc1
Activity (MGC-803 [1]): 23.2% | Activity (MGC-803 [2]): 11% | Activity (MGC-803 [3]): Active | Activity (MGC-803 [4]): inactive | Activity (MGC-803 [5]): 47.6% | Activity (MGC-803 [6]): 35.12% | Activity (MGC-803 [7]): 37.76% | Activity (MGC-803 [8]): inactive | Activity (MGC-803 [9]): Non-Toxic | Activity (MGC-803 [10]): 52.97% | Activity (MGC-803 [11]): Active | Activity (MGC-803 [12]): Active | Activity (MGC-803 [13]): Active | Activity (MGC-803 [14]): Active | Activity (MGC-803 [15]): 42.4% | Activity (MGC-803 [16]): 36% | Activity (MGC-803 [17]): 64.2% | Activity (MGC-803 [18]): 2% | Activity (MGC-803 [19]): 3.8% | Activity (MGC-803 [20]): Active | Activity (MGC-803 [21]): 5.2% | Activity (MGC-803 [22]): Active | Activity (MGC-803 [23]): Active | Activity (MGC-803 [24]): 2.5% | Activity (MGC-803 [25]): Active | Activity (MGC-803 [26]): 39.9%
